Literature values as cited in US11317628B2, “Microparticle compositions comprising saflufenacil” (BASF Agro B.V., priority 2015, dated 2022).

Conditions: background statement

Q: For `CC(C)N(C)S(=O)(=O)NC(=O)c1cc(-n2c(=O)cc(C(F)(F)F)n(C)c2=O)c(F)cc1Cl` [Saflufenacil, 2-chloro-5-[3,6-dihydro-3-methyl-2,6-dioxo-4-(trifluoromethyl)-1-(2H)pyrimidinyl]-4-fluoro-N-[[methyl(1-methylethyl)amino]sulfonyl]benzamide], which Solubility in water is on record?
A: only sparingly soluble in water
